Structures are written as SMILES. Counter-ions that a name gives are not always drawn.

A word on the IC90: it is the point of the concentration-response curve where the effect stands at 90%.

The first assay deals with SU-DHL-4 cells. Briefly: Inhibitory effect on cell viability in SU-DHL-4 cell line (Test Example 1). The assay is classed as cell-based, human. Particulars: Homo sapiens; SU-DHL-4 cells, 72 hours, Cell Counting Kit-8; concentration showing 90% inhibition of cell viability; read-out: SU-DHL-4 Cell Viability Inhibition Rate IC90. The method, then:
SU-DHL-4 cells (Code No. ACC 495, Deutsche Sammlung von Mikroorganismen and Zellkulturen GmbH; DSMZ) were cultured at 37° C. using a carbon dioxide incubator (95% air, 5% CO2) in RPMI1640 medium (Code No. 11875-093, Thermo Fisher Scientific) in which inactivated fetal bovine serum (FBS: Code No. 10099-148, Thermo Fisher Scientific) in an amount to give a final concentration of 10 vol % and penicillin/streptomycin solution (PS: […] The cells were passaged twice a week at a volume of 20-40 mL so as to maintain a cell concentration of 1×10^6 cells/mL or less. […] After seeding, the cells were precultured at 37° C. in a carbon dioxide gas incubator for 18 to 25 hours. […] At this time, the final concentration of DMSO was adjusted to be 0.1 vol %. After adding the test compound, the cells were cultured at 37° C. in a carbon dioxide gas incubator for 72 hours. Next, 0.020 mL of Cell Counting Kit-8 (Code No. CK04, DOJINDO) solution diluted 2-fold or 4-fold with phosphate buffered saline (PBS) was added to each well. Color reaction was carried out in a carbon dioxide gas incubator at 37° C. for 2 to 3 hours, and the absorbance at a wavelength of 450 nm was measured using SpectraMax 340PC (Molecular Devices). […] Absorbance of a well containing test compound • B: Absorbance of a well without addition of cells • C: Absorbance of a well without addition of test compound
On the technique in general: Formazan colour is commonly taken as a measure of viable cells.
In the case of `CCC(=O)N1c2ccccc2[C@H](Nc2ccc(NC(=O)CNCC(=O)Nc3ccc(N[C@@H]4C[C@H](C)N(C(=O)CC)c5ccccc54)nc3)cc2)C[C@@H]1C` (relative stereo) [Compound 17g, N-(4-(((2S,4R)-2-Methyl-1-propionyl-1,2,3,4-tetrahydroquinolin-4-yl)amino)phenyl)-2-((2-((6-(((2S*,4R*)-2-methyl-1-propionyl-1,2,3,4-tetrahydroquinolin-4-yl)amino)pyridin-3-yl)amino)-2-oxoethyl)amino)acetamide], the IC90 amounted to 32.7 nM.
The same measure, in the same setting: the figure for `CCC(=O)N1c2ccccc2[C@H](Nc2ccc(-c3nnc(CNC(=O)N4CCN(Cc5cc(O)cc(-c6c(C)noc6C)c5)CC4)o3)cc2)C[C@@H]1C` [Compound 16c, 4-(3-(3,5-Dimethylisoxazol-4-yl)-5-hydroxybenzyl)-N-((5-(4-(((2S,4R)-2-methyl-1-propionyl-1,2,3,4-tetrahydroquinolin-4-yl)amino)phenyl)-1,3,4-oxadiazol-2-yl)methyl)piperazine-1-carboxamide] is 0.28 nM; for `CCC(=O)N1c2ccccc2[C@H](Nc2ccc(-n3cc(CCNC(=O)C4CCN(Cc5cc(O)cc(-c6c(C)noc6C)c5)CC4)nn3)cc2)C[C@@H]1C` [Compound 17l, 1-(3-(3,5-Dimethylisoxazol-4-yl)-5-hydroxybenzyl)-N-(2-(1-(4-(((2S,4R)-2-methyl-1-propionyl-1,2,3,4-tetrahydroquinolin-4-yl)amino)phenyl)-1H-1,2,3-triazol-4-yl)ethyl)piperidine-4-carboxamide formate] it is 1.89 nM.
On the same count and under the same terms, the figure for `CCC(=O)N1c2ccccc2[C@H](Nc2ccc(NC(=O)CCCC(=O)NC3CCN(Cc4ccccc4-c4cn(C)c(=O)cc4OC)CC3)cc2)C[C@@H]1C` [Compound 16h, N^1-(1-(2-(4-Methoxy-1-methyl-6-oxo-1,6-dihydropyridin-3-yl)benzyl)piperidin-4-yl)-N5-(4-(((2S,4R)-2-methyl-1-propionyl-1,2,3,4-tetrahydroquinolin-4-yl)amino)phenyl)glutaramide] is 68.4 nM; for `CCC(=O)N1c2ccccc2[C@H](Nc2ccc(NC(=O)CCCC(=O)NC3CC4(C3)CN(Cc3cc(O)cc(-c5c(C)noc5C)c3)C4)cc2)C[C@@H]1C` [Compound 16g, N^1-(2-(3-(3,5-Dimethylisoxazol-4-yl)-5-hydroxybenzyl)-2-azaspiro[3.3]heptan-6-yl)-N5-(4-(((2S,4R)-2-methyl-1-propionyl-1,2,3,4-tetrahydroquinolin-4-yl)amino)phenyl)glutaramide] it is 14.9 nM; for `CCC(=O)N1c2ccccc2[C@H](Nc2ccc(-n3cc(CNC(=O)C4CCN(Cc5cc(O)cc(-c6c(C)noc6C)c5)CC4)nn3)cc2)C[C@@H]1C` [Compound 16d, 1-(3-(3,5-Dimethylisoxazol-4-yl)-5-hydroxybenzyl)-N-((1-(4-(((2S,4R)-2-methyl-1-propionyl-1,2,3,4-tetrahydroquinolin-4-yl)amino)phenyl)-1H-1,2,3-triazol-4-yl)methyl)piperidine-4-carboxamide] it is 0.17 nM.

Staying with this assay, now noted: SU-DHL-4 cells, 72 hours, Cell Counting Kit-8; concentration showing 90% inhibition of cell viability; read-out: SU-DHL-4 Cell Viability Inhibition Rate IC90.
Regarding `CCC(=O)N1c2ccccc2[C@H](Nc2ccc(NC(=O)C3CN(C(=O)N[C@H]4CC[C@H](N[C@@H]5C[C@H](C)N(C(=O)CC)c6ccccc65)CC4)C3)cc2)C[C@@H]1C` [Compound 7c, N^1-((1R,4r)-4-(((2S,4R)-2-Methyl-1-propionyl-1,2,3,4-tetrahydroquinolin-4-yl)amino)cyclohexyl)-N^3-(4-(((2S,4R)-2-methyl-1-propionyl-1,2,3,4-tetrahydroquinolin-4-yl)amino)phenyl)azetidine-1,3-dicarboxamide], the IC90 is 7 nM.
On the same count and under the same terms, in the case of `CCC(=O)N1c2ccccc2[C@H](Nc2ccc(NC(=O)c3coc(N[C@H]4CC[C@H](N[C@@H]5C[C@H](C)N(C(=O)CC)c6ccccc65)CC4)n3)cc2)C[C@@H]1C` [Compound 7g, 2-(((1R,4R)-4-(((2S,4R)-2-Methyl-1-propionyl-1,2,3,4-tetrahydroquinolin-4-yl)amino)cyclohexyl)amino)-N-(4-(((2S,4R)-2-methyl-1-propionyl-1,2,3,4-tetrahydroquinolin-4-yl)amino)phenyl)oxazole-4-carboxamide] it was 7.56 nM; in that of `CCC(=O)N1c2ccccc2[C@H](Nc2ccc(NC(=O)COC(=O)N[C@H]3CC[C@H](N[C@@H]4C[C@H](C)N(C(=O)CC)c5ccccc54)CC3)cc2)C[C@@H]1C` [Compound 7f, 2-((4-(((2S,4R)-2-Methyl-1-propionyl-1,2,3,4-tetrahydroquinolin-4-yl)amino)phenyl)amino)-2-oxoethyl ((1R,4R)-4-(((2S,4R)-2-methyl-1-propionyl-1,2,3,4-tetrahydroquinolin-4-yl)amino)cyclohexyl)carbamate], 3.2 nM; in that of `CCC(=O)N1c2ccccc2[C@H](Nc2ccc(C(=O)NC3CN(C(=O)C4CCC(N[C@@H]5C[C@H](C)N(C(=O)CC)c6ccccc65)CC4)C3)cc2)C[C@@H]1C` (relative stereo) [Compound 7n, 4-(((2S,4R)-2-Methyl-1-propionyl-1,2,3,4-tetrahydroquinolin-4-yl)amino)-N-(1-((1R,4R)-4-(((2S*,4R*)-2-methyl-1-propionyl-1,2,3,4-tetrahydroquinolin-4-yl)amino)cyclohexane-1-carbonyl)azetidin-3-yl)benzamide], 13.9 nM.
Same read-out and setting: in the case of `CCC(=O)N1c2ccccc2[C@H](Nc2ccc(NC(=O)CCCC(=O)Nc3ccc(Cn4c(CC)cc5c4CCCC5=O)cc3)cc2)C[C@@H]1C` [Compound 15i] it was 0.88 nM; in that of `CCC(=O)N1c2ccccc2[C@H](Nc2ccc(C(=O)NCC#CC(=O)NC3CCC(N[C@@H]4C[C@H](C)N(C(=O)CC)c5ccccc54)CC3)cc2)C[C@@H]1C` (stereo partly drawn) [Compound 8m, 4-(((2S,4R)-2-Methyl-1-propionyl-1,2,3,4-tetrahydroquinolin-4-yl)amino)-N-(4-(((1R,4r)-4-(((2S,4R)-2-methyl-1-propionyl-1,2,3,4-tetrahydroquinolin-4-yl)amino)cyclohexyl)amino)-4-oxobut-2-yn-1-yl)benzamide], 0.11 nM.
As to `CCC(=O)N1c2ccccc2[C@H](Nc2ccc(C(=O)NCCS(=O)(=O)NC3CCC(N[C@@H]4C[C@H](C)N(C(=O)CC)c5ccccc54)CC3)cc2)C[C@@H]1C` (relative stereo) [Compound 9a, 4-(((2S,4R)-2-Methyl-1-propionyl-1,2,3,4-tetrahydroquinolin-4-yl)amino)-N-(2-(N-((1R,4R)-4-(((2S*,4R*)-2-methyl-1-propionyl-1,2,3,4-tetrahydroquinolin-4-yl)amino)cyclohexyl)sulfamoyl)ethyl)benzamide], the IC90 came to 1.68 nM.
On the same count and under the same terms, the figure for `CCC(=O)N1c2ccccc2[C@H](Nc2ccc(C(=O)NCCCNC(=O)c3ccc(C4=N[C@@H](CC(=O)OCCN(C)C)c5nnc(C)n5-c5sc(C)c(C)c54)cc3)cc2)C[C@@H]1C` [Compound 13c, 2-(Dimethylamino)ethyl 2-((S)-2,3,9-trimethyl-4-(4-((3-(4-(((2S,4R)-2-methyl-1-propionyl-1,2,3,4-tetrahydroquinolin-4-yl)amino)benzamide)propyl)carbamoyl)phenyl)-6H-thieno[3,2-f][1,2,4]triazolo[4,3-a][1,4]diazepin-6-yl)acetate] is 7.36 nM.

Source of the values: patent US20220378923A1, “BET DEGRADER” (KYOWA KIRIN CO., LTD., priority 2019, published 2022).
